The values below come from patent US20020127228A1, “PGT and apoptosis” (WELFIDE CORPORATION, priority 1998, published 2002).

One test has as its system SAPK/JNK. Kind of test: SAPK/JNK activation in PC12 cells after NGF withdrawal, Western blot. The test is classed as cell-based, rat. On the set-up: key to Degree of luminescence: +++ is extremely strong; + is confirmed luminescence; ± is poor luminescence. As to conditions: for Degree of luminescence: phosphorylated JNK band. As to the method:
4) Intercellular signals via SAPK/JNK Stress-activated protein kinase/Jun N-terminal kinase (abbreviated SAPK/JNK) is associated with apoptosis induction. Thus, intercellular signals within cells via SAPK/JNK were investigated based upon effects with respect to variations in SAPK/JNK activity.
The present experiment was performed with Western blot analysis. Individual additives were added to cell culturing medium for PC12 cells in accordance with the aforementioned experiment. Culturing was performed for 1-4 hrs after withdrawal of NGF. PC12 cells were lysed with a buffer solution, centrifuged, and the supernatant of cell lysate was prepared. After said supernatant was incubated with JNK 1 polyclonal antibodies (Santa Cruz Biotechnology) at 4° C. for 1 hr. Protein A sepharose was added to it. The resultant was incubated for 1 hr and the immunoprecipitate as described below was provided. […] of cell lysate was conducted with SDS-PAGE electrophoresis, and transferred to a nylon membrane (Amersham Pharmacia Biotech). Blotting of phosphorylated (active) JNK antibodies (Santa Cruz Biotechnology) was performed with this membrane, and bands were detected in accordance with the instruction manual. Intercellular signals within cells were amplified by chemiluminescence and auto radioactivity methods (FCL, Amersham Pharmacia Biotech).
Background: In western blotting, separated proteins are transferred to a membrane and probed.

Test [1] deals with differentiated PC12 cells. As to the kind of experiment: Suppression of apoptosis in differentiated PC12 cells after NGF withdrawal, TUNEL staining. The test is classed as cell-based, rat. Conditions: for TUNEL-positive cells (%): NGF withdrawal. As for the experimental part:
(1) After growing rat adrenal pheochromocytoma PC12 cells (obtained by: ATCC; importer: Dainippon Pharmaceutical) with RPMI1640 containing 10 ml/l heat-inactivated horse serum and 5 ml/l heat-inactivated fetal calf serum, culturing was performed with RPMI1640 containing mouse β NGF (100 ng/ml), N2 supplement, and TIP (5 μg/ml transferrin, 5 μg/ml insulin, and 10 ng/ml progesterone). Differentiation to neuron-like cells was performed.
(2) Differentiated PC12 cells were washed with Neurobasal culture medium. After replacing the culture medium with RPMI1640 not containing β NGF, N2 supplement, and TIP, mouse β NGF antibodies (final concentration: 50 ng/ml) were added. By culturing for 24 hrs, apoptosis was induced.
0.01-1 μM) to fresh culture medium during medium replacement and culturing was performed for the same amount of time. As a negative control, a solvent (ethanol) alone was added in the same manner and culturing was performed for the same period of time. Apoptosis detection was performed by Hoechst 33342 staining (at 1 mM with a reaction in 2 minutes at room temperature) after fixation (room temperature for 30 mins) of cells with a 1% glutaraldehyde solution. Observation was made from 5 arbitrary visual fields using a fluorescence microscope. Total cell and apoptotic cells were counted, and incident of apoptosis was calculated.
As regards the apoptosis-suppressing activity of PGE1 in nerve neurons, the manners other than TUNEL staining for detection of apoptosis were in accordance with ones in Experiment 1. The results are indicated in Table2.

Test [2] has as its system rat cerebral cortical neurons. As to the kind of experiment: Apoptosis induced by amyloid beta peptide in rat cerebral cortical neurons, Hoechst 33342. The test is classed as cell-based. As for the experimental part:
The cortex region of embryonic day 17 or 18 rat cerebrum was extracted on ice. Cells were dispersed using a neuron dispersal solution (Sumilon) after sectioning. Afterwards, cells were dispersed to a density of 1.5×10^5 cells/cm^2 in a culturing flask that was coated with polyethyleneimine beforehand. After 4 days of culturing, the following experiment was provided. Therefore, as the culture medium, Neurobasal medium (Gibco) adding with B27 supplement (1/50 volume), 2-mercaptoethanol (27.5 μM), L-glutamic acid (25 μM), and glutamine (0.5 mM) was used.
Amyloid beta peptide 25-35 (Aβ25-35) was dissolved in distilled water to a concentration of 1 mM, incubated for 1 week at about 37° C., and Aged-Aβ25-35 was prepared. The induction of apoptosis in neuron was performed by the replacement of the aforementioned culture medium (with the exception of L-glutamicacid) containing 10 μM Aged-Aβ25-35.
4) It was investigated that the suppressing effect of PGE1 on apoptosis induced by amyloid beta peptide. After dissolution of PGE1 in ethanol, when the aforementioned 2) Aged-Aβ25-35 was added to the culture medium, simultaneously PGE1 solution was added to it. The final concentration thereof was 1 μM.
Cells were washed with PBS (−) at 24 hrs after induction of apoptosis and fixed for 30 mins at room temperature using a 1% glutaraldehyde solution (in PBS). Next, cell were washed with PBS (−) two times and followed by incubation with 1 mM Hoechst 33342 solution (in PBS) for 2 mins. Afterwards, observation of nuclear chromatin morphology was conducted using a fluorescence microscope with 4 arbitrary visual fields. Normal cells and apoptotic cells (cell where chromatin fragmentation or condensation was appeared) were counted, and the ratio was calculated as the incidence of apoptosis. The n was 3.
6) The relationship between PGT inhibitors and apoptosis induced by amyloid beta peptide was investigated. BrCG, which is a PGT inhibitor, with a final concentration of 60 μM was added simultaneously with PGE1 but other manners were in accordance with the aforementioned ones in 1)-5).
It was investigated that the influence of PGT antisense on the inhibitory effect of PGE1 against apoptosis induced by amyloid beta peptide. PGT antisense was used as it is with regard to the oligonucleotide in Experiment 3. The addition concentration thereof was 1.5 μM. Incidence of apoptosis was performed in accordance with Experiment 5. Then was 3.
1) Drugs having an inhibitory activity against induction of apoptosis by amyloid beta peptide were investigated. After dissolving test drugs (PGE1, PGK1, PGK2, and bicyclo PGE2) in ethanol, when Aged-Aβ25-35 was added to the culture medium, simultaneously test drug solution were added to it. But other manners were in accordance with Experiment 5. Ratio of normal cells and apoptotic cells allowed calculation of the rate of inhibition of apoptosis induction.

The subject of another test is NRK52E cells. Kind of test: Apoptosis induced by NO donor NOC12 in NRK52E kidney cells. The test is classed as cell-based, rat. Conditions: NOC12 0.4 mM, 24 hrs, n 5. As to the method: 1) Apoptosis was induced by NO (nitrogen monoxide) in kidney cells. NRK52E cells, which are established from a rat renal tubule epithelial cell line, mainly derived from distal were cultured for 24 hours with a chamber slide that was coated with type-I collagen. Afterwards, the cultured medium was changed to a serum-free medium, and apoptosis was induced by addition of NOC12 (0.4 mM) or S-nitroso L-glutathione (GSNO: 1 mM), which are NO donors.
4) Inhibitory effect of PGE1 to the induction of apoptosis in kidney cells was investigated PGE1 was added simultaneously with the addition of a NO donor to a final concentration of 1 or 10 μM. After 24 hrs, cells were fixed with a 1% glutaraldehyde solution and stained with Hoechst 33342. Three visual fields were selected arbitrarily per slide, and the ratio of the cells count where nuclear fragmentation and condensation appeared was calculated with respect to the total cells in the field (magnification: 400x). The n was 5.

For `CCCCC[C@H](O)/C=C/[C@H]1[C@H](O)CC(=O)[C@@H]1CCCCCCC(=O)O` [PGE1, prostaglandin E1], the “Effect on SAPK/JNK activation (in words)” value in the test on SAPK/JNK (1 hr after NGF withdrawal) is “the activation was suppressed”. Also, the results for the Degree of luminescence result with SAPK/JNK (PGE1 0.1 μM) and in the test with SAPK/JNK (PGE1 1 μM) were “+” and “±”, respectively. The “Effect on cell apoptosis (in words)” value in test [1] (PGE1 0.1 μM and 1 μM) is given as “suppressed cell apoptosis”. Further, the “TUNEL-positive cells (%)” value turned out to be 13.80 ± 0.75% in test [1] (PGE1 0.1 μM) and 8.10 ± 1.57% in test [1] (PGE1 1 μM). In test [2], the “Effect on apoptosis induced by amyloid beta peptide (in words)” value is “suppressed apoptosis inducted by amyloid beta peptide”. In addition, the “Incidence of apoptosis (%)” value in test [2] (Experiment 5, PGE1 1 μM, 10 μM Aged-Aβ25-35, 24 hrs, n 3) worked out at 23 ± 2 %; in test [2] (Experiment 6, PGE1, Aged-Aβ25-35, n 3), 23 ± 2 %; with NRK52E cells (PGE1 1 μM) it was 11 ± 2 %; with NRK52E cells (PGE1 10 μM) it was 6 ± 1 %. The “Inhibition of apoptosis induction (%)” value in test [2] (Experiment 7, test drug added with Aged-Aβ25-35) worked out at 38.2%.
